The target in experiment [1] is T1, Cbl-b (Homo sapiens, UniProt Q13191).
T1 construct: Cbl-b-HiBit KI Jurkat Cells were purchased from Promega; host or cells: Cbl-b-HiBiT knock-in Jurkat cells
Description: Cbl-b Degradation Method A (FACS, anti-Cbl-b antibody staining). The following applies: Cbl-b-HiBit KI Jurkat Cells, incubated at least 20 hours; for DC50: half maximal degradation, read-out: Cbl-b Degredation Method A IC50; for Dmax: Jurkat, maximum degradation observed, read-out: Cbl-b Degredation Method A Dmax (%). The format is cell-based. A digest of the protocol: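 Cbl-b-HiBit KI Jurkat cells treated with compound for at least 20 h at 37 °C, then fixed, permeabilized and stained with anti-Cbl-b antibody plus anti-rabbit AF488 secondary. Cbl-b levels read by FACS; DC50 and Dmax (percent of control) derived.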

Experiment [2] has as its target T1, Cbl-b. Description: Cbl-b Degradation Method B (Nano-Glo HiBiT lytic detection). It is filed as cell-based. To be noted: Cbl-b-HiBit KI Jurkat Cells, incubated at least 6-24 hours; for DC50: half maximal degradation, read-out: Cbl-b Degredation Method B IC50; for Cbl-b Degredation Method B Dmax (%) / Dmax: maximum degradation observed; for Dmax: read-out: Cbl-b Degredation Method B Dmax (%). The essentials: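 Cbl-b-HiBiT knock-in Jurkat cells (20,000/well) were treated after ~24 h plating with an 11-point 1:3 series for 6-24 h at 37° C. Remaining Cbl-b measured by Nano-Glo HiBiT lytic luminescence. DC50 and Dmax expressed as % of control.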
On the technique in general: HiBiT is a short tag that completes a luciferase, so light tracks the accessible tagged protein.

T1 sequence (Q13191 whole entry): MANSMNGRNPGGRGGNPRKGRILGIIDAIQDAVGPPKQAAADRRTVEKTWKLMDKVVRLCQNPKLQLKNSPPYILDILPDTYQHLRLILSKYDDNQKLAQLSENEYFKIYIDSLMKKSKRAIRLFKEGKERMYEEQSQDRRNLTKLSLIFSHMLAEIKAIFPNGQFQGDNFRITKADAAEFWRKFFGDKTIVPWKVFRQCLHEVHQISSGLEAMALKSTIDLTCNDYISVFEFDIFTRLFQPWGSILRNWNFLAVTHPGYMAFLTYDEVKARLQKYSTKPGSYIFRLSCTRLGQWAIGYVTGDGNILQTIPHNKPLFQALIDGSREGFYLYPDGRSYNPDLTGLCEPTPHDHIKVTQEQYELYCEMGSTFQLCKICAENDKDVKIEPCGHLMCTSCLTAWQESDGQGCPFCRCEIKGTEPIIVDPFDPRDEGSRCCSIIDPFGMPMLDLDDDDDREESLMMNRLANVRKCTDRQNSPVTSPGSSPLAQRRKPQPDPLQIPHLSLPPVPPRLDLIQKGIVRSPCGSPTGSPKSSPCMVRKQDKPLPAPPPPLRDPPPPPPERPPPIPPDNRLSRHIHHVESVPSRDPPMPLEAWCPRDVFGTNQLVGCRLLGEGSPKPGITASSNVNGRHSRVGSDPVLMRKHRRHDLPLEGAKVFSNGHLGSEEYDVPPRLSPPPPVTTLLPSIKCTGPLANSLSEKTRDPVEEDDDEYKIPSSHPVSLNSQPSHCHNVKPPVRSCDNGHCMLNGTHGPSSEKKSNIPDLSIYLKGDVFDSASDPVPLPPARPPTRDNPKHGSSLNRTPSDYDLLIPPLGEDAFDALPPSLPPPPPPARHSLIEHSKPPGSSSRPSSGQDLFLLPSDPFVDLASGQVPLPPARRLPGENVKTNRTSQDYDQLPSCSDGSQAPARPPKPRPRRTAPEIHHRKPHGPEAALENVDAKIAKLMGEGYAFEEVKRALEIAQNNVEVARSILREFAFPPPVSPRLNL

Broadly, the Dmax is the greatest extent of degradation seen. On to `Cn1cnnc1C[C@]1(c2cccc(N3Cc4c(cc(CN5CCN(C[C@H]6CC[C@H](OC7CCN(c8cccc9c8n(C(F)F)c(=O)n9C8CCC(=O)NC8=O)CC7)CC6)CC5(C)C)cc4C(F)(F)F)C3=O)c2)C[C@H](C#N)C1` (some centres unmarked) [Example 324, (1r,3r)-3-(3-{6-[(2,2-dimethyl-4-{[(1r,4r)-4-({1-[3-(difluoromethyl)-1-(2,6-dioxopiperidin-3-yl)-2-oxo-2,3-dihydro-1H-1,3-benzodiazol-4-yl]piperidin-4-yl}oxy)cyclohexyl]methyl}piperazin-1-yl)methyl]-1-oxo-4-(trifluoromethyl)-2,3-dihydro-1H-isoindol-2-yl}phenyl)-3-[(4-methyl-4H-1,2,4-triazol-3-yl)methyl]cyclobutane-1-carbonitrile], for which, on Cbl-b [1], the DC50 fell in the range of 5 to 50 nM and the greatest degradation seen (Dmax) is 35 to 70%. Further, at Cbl-b [2], the DC50 is below 5 nM and the “Cbl-b Degredation Method B Dmax (%)” value is reported as “C (C ≤ 35)”.

For the compound `Cn1cnnc1CC1(c2cccc(N3Cc4c(cc(CN5CCN(C[C@H]6CC[C@H](OC7CCN(c8ccc9c(c8)C(=O)N(C8CCC(=O)NC8=O)C9=O)CC7)CC6)CC5)cc4C(F)(F)F)C3=O)c2)COC1` (some centres unmarked) [Example 22, 2-(2,6-dioxo-3-piperidyl)-5-[4-[4-[[4-[[2-[3-[3-[(4-methyl-1,2,4-triazol-3-yl)methyl]oxetan-3-yl]phenyl]-3-oxo-7-(trifluoromethyl)isoindolin-5-yl]methyl]piperazin-1-yl]methyl]cyclohexoxy]-1-piperidyl]isoindoline-1,3-dione], on Cbl-b [1], the DC50 fell in the range of 5 to 50 nM and the maximal degradation (Dmax) is 35 to 70%. On Cbl-b [2], the DC50 is below 5 nM and the greatest degradation seen (Dmax) lay within 35 to 70%.

Regarding `C[C@H]1CN(Cc2cc3c(c(C(F)(F)F)c2)CN(c2cccc(C4(Cc5nncn5C)COC4)c2)C3=O)CCN1CC1CCC(OC2CCN(c3ccc4c(c3F)CN(C3CCC(=O)NC3=O)C4=O)CC2)CC1` (stereo partly drawn) [Example 237, 3-[4-fluoro-1-oxo-5-(4-{[(1rs,4rs)-4-{[(2S)-2-methyl-4-{[2-(3-{3-[(4-methyl-4H-1,2,4-triazol-3-yl)methyl]oxetan-3-yl}phenyl)-3-oxo-7-(trifluoromethyl)-2,3-dihydro-1H-isoindol-5-yl]methyl}piperazin-1-yl]methyl}cyclohexyl]oxy}piperidin-1-yl)-2,3-dihydro-1H-isoindol-2-yl]piperidine-2,6-dione], on Cbl-b [1], the DC50 is below 5 nM and the maximal degradation (Dmax) was above 70%. Also, on Cbl-b [2], the DC50 was below 5 nM and the Dmax is above 70%.

Take `Cn1cnnc1CC1(c2cccc(N3Cc4c(cc(CN5CCC(CN6CC(C7CN(c8ccc9c(c8)C(=O)N(C8CCC(=O)NC8=O)C9=O)C7)C6)CC5)cc4C(F)(F)F)C3=O)c2)COC1` (centres unmarked) [Example 83, 2-(2,6-dioxopiperidin-3-yl)-5-{1′-[(1-{[2-(3-{3-[(4-methyl-4H-1,2,4-triazol-3-yl)methyl]oxetan-3-yl}phenyl)-3-oxo-7-(trifluoromethyl)-2,3-dihydro-1H-isoindol-5-yl]methyl}piperidin-4-yl)methyl]-[3,3′-biazetidin]-1-yl}-2,3-dihydro-1H-isoindole-1,3-dione]: the DC50 on Cbl-b [1] and at Cbl-b [2] was above 500 nM each time.

For the compound `Cn1cnnc1CC1(c2cccc(N3Cc4c(cc(CN5CCC[C@H](CN6CCC(CC7CCN(c8ccc9c(c8)C(=O)N(C8CCC(=O)NC8=O)C9=O)CC7)CC6)C5)cc4C(F)(F)F)C3=O)c2)COC1` (stereo partly drawn) [Example 111, 2-(2,6-dioxopiperidin-3-yl)-5-{4-[(1-{[(3R)-1-{[2-(3-{3-[(4-methyl-4H-1,2,4-triazol-3-yl)methyl]oxetan-3-yl}phenyl)-3-oxo-7-(trifluoromethyl)-2,3-dihydro-1H-isoindol-5-yl]methyl}piperidin-3-yl]methyl}piperidin-4-yl)methyl]piperidin-1-yl}-2,3-dihydro-1H-isoindole-1,3-dione], the DC50 at Cbl-b [1] was 50 to 500 nM; at Cbl-b [2], above 500 nM.

For the compound `Cn1cnnc1CC1(c2cccc(N3Cc4c(cc(N5CC(C6CN(c7ccc8c(c7)C(=O)N(C7CCC(=O)NC7=O)C8=O)C6)C5)cc4C(F)(F)F)C3=O)c2)COC1` (centres unmarked) [Example 121, 2-(2,6-dioxopiperidin-3-yl)-5-{1′-[2-(3-{3-[(4-methyl-4H-1,2,4-triazol-3-yl)methyl]oxetan-3-yl}phenyl)-3-oxo-7-(trifluoromethyl)-2,3-dihydro-1H-isoindol-5-yl]-[3,3′-biazetidin]-1-yl}-2,3-dihydro-1H-isoindole-1,3-dione], the DC50 is 5 to 50 nM at Cbl-b [1] and above 500 nM on Cbl-b [2].

In the case of `CC1c2nc(N3CCC(O[C@H]4CC[C@@H](CN5C[C@@H]6C[C@H]5CN6Cc5cc6c(c(C(F)(F)F)c5)CN(c5cccc(C7(Cc8nncn8C)CCC7)c5)C6=O)CC4)CC3)ccc2C(=O)N1C1CCC(=O)NC1=O` (stereo partly drawn) [Example 223, 3-[7-methyl-5-oxo-2-(4-{[(1r,4r)-4-{[(1S,4S)-5-{[2-(3-{1-[(4-methyl-4H-1,2,4-triazol-3-yl)methyl]cyclobutyl}phenyl)-3-oxo-7-(trifluoromethyl)-2,3-dihydro-1H-isoindol-5-yl]methyl}-2,5-diazabicyclo[2.2.1]heptan-2-yl]methyl}cyclohexyl]oxy}piperidin-1-yl)-5H,6H,7H-pyrrolo[3,4-b]pyridin-6-yl]piperidine-2,6-dione], at Cbl-b [1], the DC50 fell in the range of 5 to 50 nM and the Dmax is 35 to 70%. At Cbl-b [2], the DC50 is below 5 nM and the greatest degradation seen (Dmax) was 35 to 70%.

As to `Cn1cnnc1CC1(c2cccc(N3Cc4c(cc(CN5CCC[C@H](CN6CCC(CN7CC8(C7)CN(c7ccc9c(c7)C(=O)N(C7CCC(=O)NC7=O)C9=O)C8)CC6)C5)cc4C(F)(F)F)C3=O)c2)COC1` (stereo partly drawn) [Example 114, 2-(2,6-dioxopiperidin-3-yl)-5-{6-[(1-{[(3R)-1-{[2-(3-{3-[(4-methyl-4H-1,2,4-triazol-3-yl)methyl]oxetan-3-yl}phenyl)-3-oxo-7-(trifluoromethyl)-2,3-dihydro-1H-isoindol-5-yl]methyl}piperidin-3-yl]methyl}piperidin-4-yl)methyl]-2,6-diazaspiro[3.3]heptan-2-yl}-2,3-dihydro-1H-isoindole-1,3-dione], the DC50 at Cbl-b [1] and on Cbl-b [2] was 5 to 50 nM each time. For the same compound, the greatest degradation seen (Dmax) on Cbl-b [1] and on Cbl-b [2] was below 35% throughout.

For the compound `Cn1cnnc1C[C@]1(c2cccc(N3Cc4c(cc(CN5CCN(C[C@H]6CC[C@H](OC7CCN(c8ccc9c(c8F)CN(C8CCC(=O)NC8=O)C9=O)CC7)CC6)CC5)cc4C(F)(F)F)C3=O)c2)C[C@H](C#N)C1` (some centres unmarked) [Example 167, (1r,3r)-3-[(4-methyl-4H-1,2,4-triazol-3-yl)methyl]-3-(3-{1-oxo-6-[(4-{[(1r,4r)-4-({1-[2-(2,6-dioxopiperidin-3-yl)-4-fluoro-1-oxo-2,3-dihydro-1H-isoindol-5-yl]piperidin-4-yl}oxy)cyclohexyl]methyl}piperazin-1-yl)methyl]-4-(trifluoromethyl)-2,3-dihydro-1H-isoindol-2-yl}phenyl)cyclobutane-1-carbonitrile], on Cbl-b [1], the DC50 is below 5 nM and the Dmax is above 70%. Further, on Cbl-b [2], the DC50 was below 5 nM and the maximal degradation (Dmax) lay within 35 to 70%.

For `CC1CN(C[C@H]2CC[C@H](OC3CCN(c4ccc5c(n4)C(C)N(C4CCC(=O)NC4=O)C5=O)CC3)CC2)CCN1Cc1cc2c(c(C(F)(F)F)c1)CN(c1cccc(C3(Cc4nncn4C)CC3)c1)C2=O` (some centres unmarked) [Example 212, 3-[7-methyl-5-oxo-2-(4-{[(1r,4r)-4-[(3-methyl-4-{[2-(3-{1-[(4-methyl-4H-1,2,4-triazol-3-yl)methyl]cyclopropyl}phenyl)-3-oxo-7-(trifluoromethyl)-2,3-dihydro-1H-isoindol-5-yl]methyl}piperazin-1-yl)methyl]cyclohexyl]oxy}piperidin-1-yl)-5H,6H,7H-pyrrolo[3,4-b]pyridin-6-yl]piperidine-2,6-dione], on Cbl-b [1], the DC50 lay within 5 to 50 nM and the maximal degradation (Dmax) lay within 35 to 70%. For the same compound, on Cbl-b [2], the DC50 was below 5 nM and the Dmax was in the range of 35 to 70%.

As for `CC(C)n1c(=O)n(C2CCC(=O)NC2=O)c2cccc(N3CCC(O[C@H]4CC[C@H](CN5CC6(CN(Cc7cc8c(c(C(F)(F)F)c7)CN(c7cccc([C@]9(Cc%10nncn%10C)C[C@@H](C#N)C9)c7)C8=O)C6)C5)CC4)CC3)c21` (some centres unmarked) [Example 327, (1r,3r)-3-[(4-methyl-4H-1,2,4-triazol-3-yl)methyl]-3-(3-{1-oxo-6-[(6-{[(1r,4r)-4-({1-[1-(2,6-dioxopiperidin-3-yl)-2-oxo-3-(propan-2-yl)-2,3-dihydro-1H-1,3-benzodiazol-4-yl]piperidin-4-yl}oxy)cyclohexyl]methyl}-2,6-diazaspiro[3.3]heptan-2-yl)methyl]-4-(trifluoromethyl)-2,3-dihydro-1H-isoindol-2-yl}phenyl)cyclobutane-1-carbonitrile], at Cbl-b [1], the DC50 fell in the range of 5 to 50 nM and the Dmax lay within 35 to 70%. Also, at Cbl-b [2], the DC50 was below 5 nM and the “Cbl-b Degredation Method B Dmax (%)” value is “C (C ≤ 35)”.

For `Cn1cnnc1CC1(c2cccc(N3Cc4c(cc(N5CCC(COCCOc6ccc7c(c6)C(=O)N(C6CCC(=O)NC6=O)C7=O)CC5)cc4C(F)(F)F)C3=O)c2)COC1` (centres unmarked) [Example 15, 2-(2,6-dioxo-3-piperidyl)-5-[2-[[1-[2-[3-[3-[(4-methyl-1,2,4-triazol-3-yl)methyl]oxetan-3-yl]phenyl]-3-oxo-7-(trifluoromethyl)isoindolin-5-yl]-4-piperidyl]methoxy]ethoxy]isoindoline-1,3-dione], at Cbl-b [1], the DC50 is 50 to 500 nM and the maximal degradation (Dmax) lay in the range of 35 to 70%. The DC50 at Cbl-b [2] was above 500 nM.

The record behind these values is patent US20260184710A1, “CASITAS B-LINEAGE LYMPHOMA PROTOONCOGENE B (CBL-B) DEGRADING COMPOUNDS AND ASSOCIATED METHODS OF USE” (Arvinas Operations, Inc., priority 2022, published 2026).
